Calls of active or inactive are those of the source. No cut-off for these calls is given here. *1 amine or outer side, *2 acyl side, *3 side chain or, on linkers, in order; H or OH if unused. Where a SMILES comes first, the peptide text is derived from it. Bridges are numbered along the chain shown (N, C = ends). [ ]: non-standard residue; d: D form. The star is where a group is joined. Met(S-mXyl) = C[S+](CC[C@H](N[*:1])C(=O)[*:2])Cc1cccc(C[*:3])c1; Biotin = O=C1N[C@H]2[C@H](CS[C@H]2CCCCC(=O)*)N1
Key:
T47D [1] = experiment: Induction of apoptosis in human T47D cells assessed as late apoptotic cells incubated for 24 hrs by Annexin V-FITC/PI staining based flow cytometry (reference value: 0.898 %); type: functional
A549 [2] = experiment: Induction of cell cycle arrest in human A549 cells assessed as cell accumulation at G2 phase at 50 uM incubated for 24 hrs by RNase/PI staining based flow cytometry (reference value: 9.81 %); type: functional
T47D [3] = experiment: Induction of apoptosis in human T47D cells assessed as viable cells incubated for 24 hrs by Annexin V-FITC/PI staining based flow cytometry (reference value: 98.6 %); type: functional
A549 [4] = experiment: Induction of cell cycle arrest in human A549 cells assessed as cell accumulation at G1 phase at 50 uM incubated for 24 hrs by RNase/PI staining based flow cytometry (reference value: 49.19 %); type: functional
T47D [5] = experiment: Cytotoxicity against human T47D cells assessed as cell viability at 100 uM incubated for 24 hrs by MTT assay relative to control; settings: read-out: Activity
[6] = target: Apoptosis regulator Bcl-2 (Homo sapiens) (UniProt P10415); experiment: Binding affinity to BCL2 (unknown origin) at 50 uM incubated for 12 hrs by SDS-PAGE analysis
Sequence of Apoptosis regulator Bcl-2 (Homo sapiens) (P10415 whole entry): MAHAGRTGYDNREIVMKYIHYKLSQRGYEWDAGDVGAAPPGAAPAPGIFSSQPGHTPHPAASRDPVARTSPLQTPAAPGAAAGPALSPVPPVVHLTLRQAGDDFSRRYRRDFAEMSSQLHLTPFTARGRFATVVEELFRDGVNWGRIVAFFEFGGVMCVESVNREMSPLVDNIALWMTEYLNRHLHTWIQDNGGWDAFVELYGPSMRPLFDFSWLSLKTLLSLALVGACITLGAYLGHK

A549 [7] = settings: Homo sapiens, dose 20.0 mg/kg, route sc, time 28.0 day
A549 [8] = experiment: Induction of cell cycle arrest in human A549 cells assessed as cell accumulation at S phase at 50 uM incubated for 24 hrs by RNase/PI staining based flow cytometry (reference value: 39.60 %); type: functional
[9] = target: T1, Phospholipid hydroperoxide glutathione peroxidase GPX4 (Homo sapiens) (UniProt P36969); experiment: Binding affinity to GPX4 (unknown origin) at 50 uM incubated for 12 hrs by SDS-PAGE analysis
T1 sequence (whole entry): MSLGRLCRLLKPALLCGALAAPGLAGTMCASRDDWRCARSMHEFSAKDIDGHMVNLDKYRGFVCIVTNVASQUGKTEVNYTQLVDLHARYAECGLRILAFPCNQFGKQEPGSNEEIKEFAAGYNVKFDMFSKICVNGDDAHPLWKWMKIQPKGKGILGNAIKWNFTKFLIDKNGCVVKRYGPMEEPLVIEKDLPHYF

A549 [10] = experiment: In vivo inhibition of LSD1 in human A549 cells xenografted in athymic nude BALB/c ASlac-nu mouse at 20 mg/kg, sc everyday for 28 days by IHC analysis; type: functional, organism-based; settings: time 28.0 day
[11] = target: T2, Amine oxidase [flavin-containing] A (Homo sapiens, UniProt P21397); experiment: Inhibition of MAO-A (unknown origin) incubated for 10 mins by fluorescence based assay
T2 sequence (P21397 whole entry): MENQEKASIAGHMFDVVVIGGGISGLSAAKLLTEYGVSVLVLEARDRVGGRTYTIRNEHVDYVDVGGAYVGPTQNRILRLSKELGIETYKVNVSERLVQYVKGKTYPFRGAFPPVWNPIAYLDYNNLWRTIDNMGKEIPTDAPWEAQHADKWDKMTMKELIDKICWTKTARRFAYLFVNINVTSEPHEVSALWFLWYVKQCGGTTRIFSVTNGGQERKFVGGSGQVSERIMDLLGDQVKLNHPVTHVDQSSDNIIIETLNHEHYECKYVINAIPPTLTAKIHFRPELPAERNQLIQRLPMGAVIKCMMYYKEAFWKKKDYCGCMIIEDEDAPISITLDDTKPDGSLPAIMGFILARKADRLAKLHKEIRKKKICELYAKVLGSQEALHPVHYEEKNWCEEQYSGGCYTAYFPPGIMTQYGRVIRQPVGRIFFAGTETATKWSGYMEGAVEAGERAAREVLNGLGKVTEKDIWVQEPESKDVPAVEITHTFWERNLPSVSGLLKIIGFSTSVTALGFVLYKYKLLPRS

[12] = Toxicity in athymic nude BALB/c ASlac-nu mouse xenografted with human A549 cells assessed as body weight loss at 20 mg/kg, sc everyday for 28 days; type: organism-based; settings: in vivo, 672 h, time 28 day
A549 [13] = experiment: Cytotoxicity against human A549 cells assessed as cell viability at 100 uM incubated for 24 hrs by MTT assay relative to control; settings: A549, 24 h, read-out: Activity
T47D [14] = experiment: Induction of apoptosis in human T47D cells assessed as necrotic cells incubated for 24 hrs by Annexin V-FITC/PI staining based flow cytometry (reference value: 0.243 %); type: functional
T47D [15] = experiment: Induction of apoptosis in human T47D cells assessed as early apoptotic cells incubated for 24 hrs by Annexin V-FITC/PI staining based flow cytometry (reference value: 0.274 %); type: functional
[16] = target: Lysine-specific histone demethylase 1A (Homo sapiens) (UniProt O60341); experiment: Covalent binding affinity to full-length human LSD1 transfected in HEK293T cell lysate at 40 uM incubated overnight by biotin-pull down assay; type: subcellular

Activity [6]	Activity [9]	inhibition (INH) [11]	Activity [16]	Compound	Activity (T47D [1]) [%]	Activity (A549 [2]) [%]	Activity (T47D [3]) [%]	Activity (A549 [4]) [%]	viability at 100 µM (T47D [5]) [%]	inhibition (A549 [7])	Activity (A549 [8]) [%]	inhibition (A549 [10])	Activity [12]	viability at 100 µM (A549 [13]) [%]	Activity (T47D [14]) [%]	Activity (T47D [15]) [%]
inactive	inactive	Not Active	–	CC(=O)N1CCC[C@H]1C(=O)N[C@@H](CCCNC(=N)N)C(=O)N[C@H]1CSCc2cccc(c2)C[S+](C)CC[C@@H](C(=O)N[C@@H](CCCCN)C(=O)N2CCC[C@H]2C(=O)N[C@@H](CCCNC(=N)N)C(=O)N[C@@H](CCCNC(=N)N)C(=O)N[C@@H](CCCNC(=N)N)C(=O)N[C@@H](CCCNC(=N)N)C(=O)N[C@@H](Cc2c[nH]c3ccccc23)C(N)=O)NC(=O)[C@H](C(C)C)NC(=O)[C@H](CC(C)C)NC(=O)[C@H](Cc2ccccc2)NC1=O (stereo not given in full) (Ac-PRCFLV[Met(S-mXyl)]KPRRRRW-NH2; thioether 3-7)	46.7	12	2.14	60.61	~7.4	Active	27.23	Active	Non-Toxic	~19.9	51.2	0
–	–	–	–	O=C(O)c1ccc(CN2CCC(CN[C@@H]3C[C@H]3c3ccccc3)CC2)cc1 [GSK2879552]	1.74	9.92	95.9	53.15	–	–	36.7	Active	Non-Toxic	–	0.743	1.62
–	–	Active	–	C#CCN(C)CCCOc1ccc(Cl)cc1Cl [CLORGILINE]	–	–	–	–	–	–	–	–	–	–	–	–
–	–	–	Active	CC(=O)N1CCC[C@H]1C(=O)N[C@@H](CCCNC(=N)N)C(=O)N[C@H]1CSCc2cccc(c2)C[S+](C)CC[C@@H](C(=O)N[C@@H](CCCCNC(=O)CCCC[C@@H]2SC[C@@H]3NC(=O)N[C@@H]32)C(=O)N2CCC[C@H]2C(=O)N[C@@H](Cc2c[nH]c3ccccc23)C(N)=O)NC(=O)[C@H](C(C)C)NC(=O)[C@H](CC(C)C)NC(=O)[C@H](Cc2ccccc2)NC1=O (stereo not given in full) (Ac-PRCFLV[Met(S-mXyl)]K(Biotin)PW-NH2; thioether 3-7)	–	–	–	–	–	–	–	–	–	–	–	–
–	–	–	–	Ac-PRSFLVRKPRRRRW-NH2	2.19	7.96	96.3	57.34	–	–	34.2	Active	Non-Toxic	–	0.088	1.49

— ChEMBL document CHEMBL5370666, “Covalent Peptide LSD1 Inhibitor Specifically Recognizes Cys360 in the Enzyme-Active Region” (J Med Chem, 2023)
